1 compound from patent US20110152271A1, “Compositions and methods for ophthalmic delivery of nasal decongestants” (priority 2009, published 2011) can be followed below.

The conditions of assay [1]: 0.025% brimonidine topically to one eye; 10 minutes; 11 individuals. The protocol: 11 individuals were asked to assess the patency of each nostril by alternately closing one. They were then given 0.025% brimonidine topically to one randomly selected eye. After 10 minutes each nostril was alternately closed to assess the patency of the contralateral nostril and compare to its patency before applying brimonidine to the eye. […] Nasal patency refers to a basic evaluation of the degree to which a nostril is open (i.e. unblocked).

The conditions of assay [2]: 0.025% brimonidine in one eye. As to the method:
Eight (8) human subjects were administered 0.025% brimonidine. The subjects were administered with the drug in one eye and then asked to assess themselves in the mirror to see if they perceived a difference in conjunctival hyperemia between eyes. The drug was administered around 9:15 am. The assessments were made 5 minutes after the administration and 4 hours after the administration. After the four hours assessment, the drug was re-administered.

How the values of assay [3] were obtained:
1 drop of 0.025% brimonidine was applied to the right eye of each patient. […] Then, the breathing function was measured in each nostril separately 10 minutes later. Then, 1 dose of 0.0045% brimonidine nasal spray was applied into the left nostril and the ease of breathing was again measured in each nostril separately 10 minutes later.

Read-outs that look alike come from different tables or passages of the source.

As for `Brc1c(NC2=NCCN2)ccc2nccnc12` [brimonidine], in assay [1], the “increase in patency in the contralateral nostril” value is “not in the contralateral” and the “patients with noticeable increase in patency in the ipsilateral nostril” value is on record as 9 of the 11. The “subjects reporting reduced hyperemia and increased whiteness in the treated eye” value in assay [2] (5 min assessment) is reported as “eight of eight”. Further, in assay [2] (four hour assessment), the “subjects reporting reduced hyperemia and increased whiteness in the treated eye” value is reported as “eight of eight”; the “subjects reporting reduced nasal congestion in the nostril on the same side as the treated eye” value is “six of eight”. In assay [3] (1 drop of 0.025% brimonidine to the right eye), the “whiteness of the treated right eye” value is recorded as “In all patients, the right eye has become whiter”. Also, the “patients reporting reduced nasal congestion in the right nostril” value in assay [3] (1 drop of 0.025% brimonidine to the right eye, 10 minutes later, three subjects with records) is reported as “all three patients reported reducing nasal congestion in the right nostril”. Also, the “patients reporting reduced nasal congestion in both nostrils” value in assay [3] (after eye drop, 1 dose of 0.0045% brimonidine nasal spray into the left nostril, 10 minutes later, three subjects with records) was “all three patients reported reduced nasal congestion in the both nostrils”.
